Assays:
CCR5 = target: T1, CCR5 (Homo sapiens, UniProt P51681); assay: CCR5 in vitro test: intracellular calcium signal detected by FLIPR; assay type: cell-based; conditions: HEK293 cells expressing CCR5, agonist RANTES at EC80, calcium signal
T1 construct: expressed in transfected cells; host or cells: HEK293, clone C13, passage P4
Method in brief: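 Receptor-expressing cells loaded with Fluo-4 Direct and probenecid (2.5 mM final), then preincubated with compounds (11-point 1:3 series) before challenge at EC80 of agonist (MCP-1 for CCR2, RANTES for CCR5). FLIPR calcium max−min signal; IC50 fitted.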

CYP2D6 = target: T2, CYP2D6 (Homo sapiens, UniProt P10635); assay: Inhibition of human liver microsomal CYP2D6 (dextromethorphan probe); assay type: in vitro ADME; conditions: human liver microsomes
T2 construct: from tissue; host or cells: human liver microsomes
T2 sequence (P10635 whole entry): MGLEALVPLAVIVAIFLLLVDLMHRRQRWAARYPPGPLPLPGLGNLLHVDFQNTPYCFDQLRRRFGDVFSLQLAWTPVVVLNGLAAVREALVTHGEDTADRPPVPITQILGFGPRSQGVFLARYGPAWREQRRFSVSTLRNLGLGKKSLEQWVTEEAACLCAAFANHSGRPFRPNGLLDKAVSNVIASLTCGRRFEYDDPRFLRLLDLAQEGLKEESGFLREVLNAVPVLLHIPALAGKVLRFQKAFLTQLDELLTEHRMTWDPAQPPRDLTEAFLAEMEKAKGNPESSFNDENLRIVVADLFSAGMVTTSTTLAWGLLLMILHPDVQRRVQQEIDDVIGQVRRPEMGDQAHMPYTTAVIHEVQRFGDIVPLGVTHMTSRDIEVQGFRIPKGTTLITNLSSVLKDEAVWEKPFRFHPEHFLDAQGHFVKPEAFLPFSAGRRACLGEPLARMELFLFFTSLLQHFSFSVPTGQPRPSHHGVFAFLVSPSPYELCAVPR
Description: Experimental Example 4 Inhibition Effect on the Activity of Human Liver Microsomal Cytochrome P450 Isoezymes (CYP1A2, CYP2C9, CYP2C19, CYP2D6 and CYP3A4)
A total of 5 specific probe substrates for CYP's five isozymes, Phenacetin (CYP1A2), Diclofenac (CYP2C9), […] (S)-Mephenytoin, CYP2C19), Dextromethorphan (CYP2D6) and Midazolam (CYP3A4) were incubated with human liver microsomes and test compounds, respectively, and reduced nicotinamide adenine dinucleotide phosphate (NADPH) was added to initiate the reaction. After the reaction, the sample was processed and liquid chromatography tandem mass spectrometry (LC-MS/MS) was used to quantitatively detect the […] metabolites produced by the specific substrate, Acetaminophen and 4′-hydroxydiclofenac, 4′-hydroxymephenytoin, Dextrorphan and 1′-hydroxymidazolam, in order to calculate the corresponding half maximal inhibitory concentration (IC50).

T1 sequence (P51681 whole entry, species assumed): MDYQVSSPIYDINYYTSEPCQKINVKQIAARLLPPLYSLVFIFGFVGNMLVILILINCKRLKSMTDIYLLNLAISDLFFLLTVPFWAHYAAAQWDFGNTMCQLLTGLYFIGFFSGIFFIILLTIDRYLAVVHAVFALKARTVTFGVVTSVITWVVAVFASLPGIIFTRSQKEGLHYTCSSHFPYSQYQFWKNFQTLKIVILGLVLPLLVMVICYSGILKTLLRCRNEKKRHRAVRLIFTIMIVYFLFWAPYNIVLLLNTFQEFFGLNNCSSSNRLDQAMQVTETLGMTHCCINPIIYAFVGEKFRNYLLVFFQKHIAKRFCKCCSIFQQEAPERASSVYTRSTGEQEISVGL

IC50 (CCR5): 6.7 nM
IC50 (CYP2D6): > 50000 nM
SMILES: CCCCOCCOc1ccc(-c2ccc(OCC)c(/C=C/C(=O)Nc3ccc([S@+]([O-])Cc4c(C)ncn4CC)cc3)c2)cc1 [WX047]

Reference: patent US11155523B2, “Biphenyl compound as CCR2/CCR5 receptor antagonist” (Medshine Discovery Inc., priority 2016, dated 2021)
